Assay results: the supplement of paper PMC10307832

Experiments:
Experiment in all cases: relative viability (nuclei count vs DMSO), 5 days (fraction); higher = more cells survive
[1] = compound: CC1=CC(=C(N1C2=CC=C(C=C2)Cl)C)C(=O)CN3CCCCC3 [IU1-47] + COc1cccc2cc(-c3nc([C@H]4CC[C@H](C(=O)O)CC4)n4ncnc(N)c34)[nH]c12 [OSI-027] (partner 0.5 µM)
In short: (§1)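 Dosing by pin tool came one day after lung cancer cell lines were seeded in 1536-well plates, using either one drug or a fixed anchor-drug dose plus five library-drug doses (not always all listed) in √10 steps. After 5 days, nuclei were counted on 4× images. Relative viability is treated-well nuclei count divided by vehicle-well nuclei count, and values are medians of duplicate plates.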

[2] = compound: CC1=CC(=C(N1C2=CC=C(C=C2)Cl)C)C(=O)CN3CCCCC3 [IU1-47] + CS(=O)(=O)N1CCN(Cc2cc3nc(-c4cccc5[nH]ncc45)nc(N4CCOCC4)c3s2)CC1 [Pictilisib] (partner 1 µM)
In short: as §1

[3] = compound: CC1=CC(=C(N1C2=CC=C(C=C2)Cl)C)C(=O)CN3CCCCC3 [IU1-47] + C[C@]1(O)C[C@@H](c2nc(-c3ccc4ccc(-c5ccccc5)nc4c3)c3c(N)nccn32)C1 [Linsitinib] (partner 1 µM)
In short: as §1

[4] = compound: CC1=CC(=C(N1C2=CC=C(C=C2)Cl)C)C(=O)CN3CCCCC3 [IU1-47] + Cc1cc(Nc2cc(N3CCN(C)CC3)nc(Sc3ccc(NC(=O)C4CC4)cc3)n2)n[nH]1 [Tozasertib] (partner 0.1 µM)
In short: as §1

Cell Line | relative viability ([1]; first compound 0.08 µM) | relative viability ([1]; first compound 0.253 µM) | relative viability ([1]; first compound 0.8 µM) | relative viability ([1]; first compound 2.53 µM) | relative viability ([1]; first compound 8 µM) | relative viability ([2]; first compound 0.08 µM) | relative viability ([2]; first compound 0.253 µM) | relative viability ([2]; first compound 0.8 µM) | relative viability ([2]; first compound 8 µM) | relative viability ([3]; first compound 0.08 µM) | relative viability ([3]; first compound 0.253 µM) | relative viability ([3]; first compound 0.8 µM) | relative viability ([3]; first compound 8 µM) | relative viability ([4]; first compound 0.08 µM) | relative viability ([4]; first compound 0.253 µM) | relative viability ([4]; first compound 0.8 µM) | relative viability ([4]; first compound 8 µM) | relative viability ([2]; first compound 2.53 µM) | relative viability ([3]; first compound 2.53 µM) | relative viability ([4]; first compound 2.53 µM)
201T | 0.747 | 0.784 | 0.886 | 0.813 | 0.832 | 0.672 | 0.682 | 0.709 | 0.664 | 1.05 | 1.02 | 1.06 | 1.11 | 0.991 | 0.947 | 1.05 | 0.762 | – | – | –
A549 | – | – | – | – | – | 0.637 | 0.53 | 0.542 | 0.423 | 0.548 | 0.691 | 0.608 | 0.553 | – | – | – | – | 0.673 | – | –
A-427 | 0.454 | 0.472 | 0.453 | – | 0.463 | 0.736 | 0.84 | 0.789 | 0.632 | 1.13 | 1.11 | 1.19 | 1.21 | 0.201 | 0.208 | 0.236 | 0.212 | – | – | –
ABC-1 | 0.462 | 0.504 | 0.43 | – | 0.379 | 0.766 | 0.711 | 0.895 | 0.671 | 0.887 | 0.768 | 0.986 | 0.777 | 0.188 | 0.165 | 0.158 | 0.193 | – | – | –
BEN | 0.294 | 0.302 | 0.296 | – | 0.268 | 0.644 | 0.566 | 0.583 | 0.594 | 1.02 | 0.934 | 1.08 | 0.863 | 0.499 | 0.444 | 0.49 | 0.506 | 0.41 | 0.915 | 0.631
CAL-12T | 0.764 | 0.635 | 0.675 | 0.631 | 0.683 | 0.448 | 0.392 | 0.537 | 0.396 | 0.82 | 0.828 | 0.805 | 0.832 | 0.408 | 0.326 | 0.34 | 0.287 | 0.413 | 0.887 | 0.318
COR-L23 | 0.831 | 0.977 | 0.845 | 0.901 | 0.563 | 0.936 | 0.877 | 0.874 | 0.905 | 0.943 | 1 | 0.943 | 0.982 | 0.184 | 0.183 | 0.206 | 0.18 | 0.652 | 0.899 | 0.207
COR-L 105 | 0.746 | 0.634 | 0.711 | 0.581 | 0.57 | 0.421 | 0.411 | 0.352 | 0.396 | 1.02 | 0.875 | 1.08 | 0.89 | 0.372 | 0.387 | 0.379 | 0.326 | 0.379 | 1.03 | 0.355
Calu-6 | – | – | – | – | – | 1.13 | 1.07 | 0.861 | 0.856 | 1.09 | 0.918 | 1.02 | 0.918 | – | – | – | – | 0.972 | 0.986 | –
ChaGo-K-1 | 0.485 | 0.535 | 0.589 | 0.41 | 0.489 | 0.753 | 0.758 | 0.62 | 0.43 | – | – | – | – | 0.203 | 0.216 | 0.263 | 0.228 | 0.457 | – | 0.215
EBC-1 | – | – | – | – | – | 0.45 | 0.387 | 0.416 | 0.336 | 0.664 | 0.888 | 0.925 | 0.881 | – | – | – | – | 0.501 | 0.964 | –
EKVX | 0.858 | 0.862 | 0.726 | 0.658 | 0.828 | 0.555 | 0.549 | 0.459 | 0.463 | 1.19 | 1.18 | 0.943 | 0.861 | 0.418 | 0.433 | 0.367 | 0.349 | 0.487 | 1.1 | 0.341
EMC-BAC-2 | 0.392 | 0.368 | 0.374 | 0.38 | 0.362 | 0.547 | 0.51 | 0.545 | 0.489 | 0.857 | 0.829 | 0.841 | 0.774 | 0.279 | 0.305 | 0.285 | 0.271 | 0.572 | 0.864 | 0.305
EPLC-272H | 0.326 | 0.325 | 0.253 | – | 0.259 | 0.301 | 0.318 | 0.313 | 0.185 | 1.24 | 1.27 | 1.4 | 1.16 | 0.228 | 0.347 | 0.246 | 0.145 | – | – | –
H3255 | 0.654 | 0.675 | 0.624 | 0.465 | 0.561 | 0.542 | 0.431 | 0.488 | 0.522 | 1.16 | 1.17 | 0.957 | 0.914 | 0.725 | 0.636 | 0.643 | 0.752 | 0.537 | 0.905 | 0.416
HARA | 0.554 | 0.406 | 0.456 | – | 0.413 | 0.407 | 0.504 | 0.371 | 0.336 | 1.19 | 1.13 | 1.08 | 0.678 | 0.0876 | 0.0862 | 0.0879 | 0.0969 | 0.509 | 0.931 | –
HCC-15 | 0.709 | 0.722 | 0.685 | 0.388 | 0.616 | 0.8 | 0.703 | 0.76 | 0.65 | 0.931 | 0.967 | 0.9 | 0.801 | 0.385 | 0.432 | 0.354 | 0.227 | 0.427 | 0.917 | –
HCC-44 | 0.403 | 0.483 | 0.593 | 0.434 | 0.389 | 0.551 | 0.603 | 0.665 | 0.593 | 0.668 | 0.662 | 0.649 | 0.572 | 1.13 | 1.16 | 0.968 | 1.22 | 0.672 | 0.664 | 0.995
HCC-78 | 0.38 | 0.354 | 0.337 | 0.42 | 0.353 | 0.192 | 0.19 | 0.218 | 0.206 | 0.555 | 0.506 | 0.521 | 0.417 | 0.37 | 0.508 | 0.479 | 0.404 | 0.189 | 0.474 | 0.372
